The results in this text go back to paper PMC6151695, “Novel Selective Estrogen Receptor Ligand Conjugates Incorporating Endoxifen-Combretastatin and Cyclofenil-Combretastatin Hybrid Scaffolds: Synthesis and Biochemical Evaluation” (Molecules : A Journal of Synthetic Chemistry and Natural …, 2017).

A word on the half-life: it is the time in which the quantity being followed falls by half. A lower half-life goes with rapid decline. Usually IC50 stands for the concentration that gives 50% inhibition.

The nature of one data set: in vitro. The conditions noted are these: plasma.
In data set [1] the test system is MCF-7 cells. The settings on record: human.
Data set [2] concerns MCF-7 human breast cancer cell line. In words: Alamar Blue assay for antiproliferative effects. The format is cell-based. The settings on record: Homo sapiens, MCF7, 72 h, read-out: IC50 (μM), antiproliferative effects. Background: Alamar Blue is a resazurin reagent that responds to reducing activity.
Data set [3] is described as follows: HPLC stability study in phosphate buffer. The settings on record: pH range 4–9, 12 h.
In another data set the target is T1, human ERβ (Homo sapiens, UniProt Q92731).
T1 construct: purchased Invitrogen
T1 sequence (Q92731 whole entry): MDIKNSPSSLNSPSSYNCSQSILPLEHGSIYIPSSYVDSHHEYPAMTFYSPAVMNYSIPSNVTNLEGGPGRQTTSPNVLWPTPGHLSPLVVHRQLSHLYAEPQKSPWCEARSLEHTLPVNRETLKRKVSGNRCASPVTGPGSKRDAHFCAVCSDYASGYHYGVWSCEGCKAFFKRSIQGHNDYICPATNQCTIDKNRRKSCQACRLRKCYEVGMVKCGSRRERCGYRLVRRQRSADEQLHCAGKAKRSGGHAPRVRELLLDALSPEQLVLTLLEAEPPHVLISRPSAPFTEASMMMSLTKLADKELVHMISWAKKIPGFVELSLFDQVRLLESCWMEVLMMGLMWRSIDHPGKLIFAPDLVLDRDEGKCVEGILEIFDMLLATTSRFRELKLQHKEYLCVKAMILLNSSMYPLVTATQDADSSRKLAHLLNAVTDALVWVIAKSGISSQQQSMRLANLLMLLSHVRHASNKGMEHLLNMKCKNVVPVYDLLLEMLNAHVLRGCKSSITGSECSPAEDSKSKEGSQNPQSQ
Kind of data set: Estrogen receptor fluorescence polarisation competitive binding assay, ERβ. The conditions noted are these: competitive binding, fluorescence polarisation; read-out: ERβ IC50. A general note: Fluorescence polarisation rises when a labelled molecule tumbles more slowly, as on binding a larger partner.

Data set [4] concerns MCF-7 cells. In words: Lactate dehydrogenase (LDH) assay for cytotoxicity.
The next data set deals with T2, human ERα (Homo sapiens, UniProt P03372).
T2 construct: purchased Invitrogen
T2 sequence (P03372 1-595): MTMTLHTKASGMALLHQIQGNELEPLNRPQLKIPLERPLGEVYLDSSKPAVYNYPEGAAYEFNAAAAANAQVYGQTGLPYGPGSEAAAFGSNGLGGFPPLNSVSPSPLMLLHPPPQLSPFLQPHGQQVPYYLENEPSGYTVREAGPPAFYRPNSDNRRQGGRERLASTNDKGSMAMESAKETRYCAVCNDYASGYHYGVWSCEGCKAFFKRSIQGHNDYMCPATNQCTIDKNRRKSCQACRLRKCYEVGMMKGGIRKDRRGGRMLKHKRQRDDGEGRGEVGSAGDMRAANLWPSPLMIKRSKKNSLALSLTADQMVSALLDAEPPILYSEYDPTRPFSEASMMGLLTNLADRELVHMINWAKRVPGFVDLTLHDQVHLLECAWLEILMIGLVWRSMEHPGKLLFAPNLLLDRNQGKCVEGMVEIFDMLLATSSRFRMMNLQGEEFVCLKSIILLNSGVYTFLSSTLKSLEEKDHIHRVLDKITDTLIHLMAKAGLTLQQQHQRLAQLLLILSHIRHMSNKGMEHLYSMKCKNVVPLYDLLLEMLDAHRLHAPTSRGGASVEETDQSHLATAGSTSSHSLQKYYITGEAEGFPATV
Kind of data set: Estrogen receptor fluorescence polarisation competitive binding assay, ERα.

Molecules are shown by their SMILES. Read-outs that look alike come from different tables or passages of the source. Some results are limits rather than exact numbers.

In the case of `CC/C(=C(\c1ccc(O)cc1)c1ccc(OCCN(C)C(=O)CCC(=O)Oc2cc(/C=C\c3cc(OC)c(OC)c(OC)c3)ccc2OC)cc1)c1ccccc1` [Compound 16b, N-(2-{4-[(Z)-1-(4-Hydroxyphenyl)-2-phenylbut-1-enyl]phenoxy}ethyl)-N-methyl succinamic acid 2-methoxy-5-[(Z)-2-(3,4,5-trimethoxyphenyl)vinyl]phenyl ester], the “remained intact in plasma at 12 h” value is listed as 77%. The compound also showed a half-life in the data set “in vitro” above 48 h. The “cytotoxicity (LDH assay)” value in the data set with MCF-7 cells [1] is given as 4.1%. Further, in data set [2], the IC50 came to 0.0057 µM. In data set [3], the “remained at 12 h” value is on record as above 90%.
As for `CC/C(=C(\c1ccc(O)cc1)c1ccc(OCCNC)cc1)c1ccccc1` [Endoxifen], the IC50 amounted to 0.118 µM at human ERβ; 0.047 µM at human ERα (competitive binding, fluorescence polarisation, read-out: ERα IC50); 0.029 µM in data set [2] (MCF-7, 72 h, Alamar Blue). Further, in the data set on MCF-7 cells [4], the “cytotoxicity (LDH assay)” value worked out at 23%. Also, the “Selectivity (α/β)” value at human ERα (ratio of RBA values ERα relative to ERβ) was found to be 2.55. Moreover, the “ERα RBA” value at human ERα (relative binding affinity, estradiol (5.7 nM) = 100%) turned out to be 12.1%.
